Assay results taken from patent US12428455B2, “Dominant negative CEBPB and CEBPD proteins and methods of use for decreasing viability of neoplastic cells” (The Trustees of Columbia University in the City of New York, priority 2018, dated 2025).
No end group written: not given here.

Experiments:
[1] = test system: MCF10A non-cancer human breast epithelial cells; test: Morphology after peptide treatment, MCF10A; type: cell-based; settings: 5 to 6 days, 20 μM or 50; stock without BSA
Experimental: Stock solutions of the peptides were prepared in buffer without added bovine serum albumin (BSA).

[2] = test system: 293T transformed embryonic kidney cells; test: Cell number after peptide treatment, 293T; type: cell-based; settings: 6 days, 0 μM to 50 μM; stock without BSA
Experimental: Replicate cultures of MDA-MB-468 breast cancer cells, A549 lung cancer cells and 293T transformed embryonic kidney cells were exposed to CP-DN-CEBPB or CP-DN-CEBPD, for 6 days at doses of 0 μM to 50 μM. […] Stock solutions of the peptides were prepared in buffer without added bovine serum albumin (BSA).

[3] = test system: T98G cells; test: Apoptotic nuclei, propidium iodide flow cytometry, T98G; type: cell-based; settings: 20 μM, 3 days, vs untreated cells
Experimental: MDA-MB-231, MCF7, HCT116 and T98G cancer cell lines were treated for 3 days with 20 μM CP-dn-CEBPB and CP-dn-CEBPD peptides from stock solutions prepared without additives. Cultures were stained with propidium iodide and assessed for proportion of cells with apoptotic nuclei by flow cytometry.

[4] = test system: normal human astrocytes; test: Survival after peptide treatment, astrocytes; type: cell-based; settings: 6 days, 0 μM to 50 μM; stock without BSA
Experimental: Replicate cultures of HIEC-6 non-cancer human intestinal epithelial cells, MCF10A non-cancer human breast epithelial cells, or normal human astrocytes were exposed to CP-DN-CEBPB or CP-DN-CEBPD, for 6 days at doses of 0 μM to 50 μM. […] Stock solutions of the peptides were prepared in buffer without added bovine serum albumin (BSA).

[5] = test system: HCT116 cells; test: Colony forming activity in soft agar, HCT116; type: cell-based; settings: 6 days; doses 0.05, 0.5 and 5 μM
Experimental: (§1) T98G (FIG. 21A), MDA-MB 231 (FIG. 21B), and HCT116 (FIG. 21C) cells were exposed to CP-DN-CEBPB and CP-DN-CEBPD for 6 days at doses of 0.05 μM 0.5 μM, and 5 μM while growing in soft agar. Growth was inhibited by does as low as 0.5 μM. T98G (FIG. 21D), MDA-MB 231 (FIG. 21E), and HCT116 (FIG. 21F) cells were exposed to CP-DN-CEBPB and CP-DN-CEBPD for 6 days at doses of 0.05 μM 0.5 μM, and 5 μM while growing on culture plates. Growth was inhibited by does as low as 0.5 μM.

[6] = test system: U251 gliblastoma multiforme cells; test: Cell number after peptide treatment, U251; type: cell-based; settings: 6 days, 0 μM to 50 μM; stock without BSA
Experimental: (§2) Replicate cultures were exposed to the peptides the for 6 days at the indicated concentrations. Stock solutions of the peptides were prepared in buffer without added bovine serum albumin (BSA).

[7] = test system: T98G cells; test: Combination with gamma radiation, cell number, T98G; type: cell-based; settings: 2 Gy or 5 Gy; peptide 0.05, 0.5 or 5 μM one day later, 6 days; CI<1 indicates synergism
Experimental: Replicate cultures of T98G and HCT116 cells were exposed to 2 Gy or 5 Gy of gamma radiation. One day later, the cultures were treated with 0.05 μM, 0.5 μM, or 5 μM CP-dn-CEBPB and CP-dn-CEBPD peptides, maintained for 6 days, and then assessed for cell number. The bar graphs of FIGS. 24A (T98G, CP-dn-CEBPB), 24C (T98G, CP-dn-CEBPBD, 24E (HCT116, CP-dn-CEBPD), and 24G (HCT116, CP-dn-CEBPD) show relative cell numbers for each condition as compared to untreated controls. The line graphs of FIGS. 24B (T98G, CP-dn-CEBPB), 24D (T98G, CP-dn-CEBPBD, 24F (HCT116, CP-dn-CEBPB), and 24H (HCT116, CP-dn-CEBPD) show the response as normalized in each case so that 100 represents the relative number of surviving cells that received the indicated level of radiation treatment, but no peptide treatment. Calculated Combination Indexes (CI) are T98G, CI=0.61±0.05 for CP-dn-CEBPB, 0.68±0.07 for CP-dn-CEBPD; HCT116, 0.89±0.04 for CP-dn-CEBPB, 0.86±0.05 for CP-dn-CEBPD. CI=1 indicates additivity; CI<1 indicates synergism; CI>1 indicates antagonism.

[8] = test system: A375 melanoma cells; test: Cell number after peptide treatment, A375; type: cell-based; settings: 6 days, 0 μM to 50 μM; stock without BSA
Experimental: as §2

[9] = Solubility of peptide stock after dilution; type: physicochemical; settings: 20 mM of each of arginine and glutamate added to peptide stock buffer
Experimental: In some implementations, the mixture of arg/glu may be added at a molarity of, or of about 5 mM, 10 mM, 15 mM, 20 mM, 25 mM, or 30 mM.

[10] = test system: MDA-MB-231, MCF7, HCT116 and T98G cancer cell lines; test: PI-Annexin staining and flow cytometry, cancer cell lines; type: cell-based; settings: 20 μM, 3 days
Experimental: MDA-MB-231, MCF7, HCT116 and T98G cancer cell lines and HIEC-6 non-cancer cell lines were treated for 3 days with 20 μM CP-dn-CEBPB and CP-dn-CEBPD peptides from stock solutions prepared without additives, followed by PI-Annexin staining and flow cytometry. Numbers in upper and lower quadrants indicate % of cells in early (lower) or late (upper) apoptotic phase.

[11] = test system: T98G cells; test: Colony forming activity on culture plates, T98G; type: cell-based; settings: 6 days; doses 0.05, 0.5 and 5 μM
Experimental: as §1

[12] = test system: IL8; test: qPCR for IL8 mRNA; type: cell-based; settings: 20 μM, 3 days; T98G, MDA-MB-231, MCF7, A375 and HCT116 cells
Experimental: T98G, MDA-MB-231, MCF7, A375, and HCT116 cells were treated with or without 20 μM CP-dn-CEBPB or CP-dn-CEBPD for 3 days and then assessed by qPCR for relative levels of IL6 (FIG. 32A, T98G; FIG. 32B, MDA-MB-231; FIG. 32C, MCF7; FIG. 32D, A375; FIG. 32E, HCT116) and IL8 mRNA (FIG. 32F, T98G; FIG. 32G, MDA-MB-231; FIG. 32H, MCF7; FIG. 32I, A375; FIG. 32J, HCT116).

| Sequence | morphology of MCF10A cells [1] | number of 293T cells [2] | proportion of cells with apoptotic nuclei [3] | survival of astrocytes [4] | lowest dose at which growth was inhibited, soft agar [5] [µM] | growth and survival of U251 cells [6] | Combination Index (CI) with gamma radiation [7] | growth and survival of A375 cells [8] | solubility after dilution to the concentration applied to cultured LN229 cells [9] | apoptotic death (early or late apoptotic phase) [10] | lowest dose at which growth was inhibited, culture plates [11] [µM] | relative levels of IL8 mRNA [12] |
| --- | --- | --- | --- | --- | --- | --- | --- | --- | --- | --- | --- | --- |
| RQIKIWFQNRRMKWKKLETQHKVLELTAENERLQKKVEQLSRELSTLRNLFKQL [CP-DN-CEBPB] | did not affect the morphology | dose-dependent decrease in the number | increased apoptotic cell death | neither CP-DN-CEBPB or CP-DN-CEBPD affected survival of astrocyte | 0.5 | decrease in growth and survival | 0.61±0.05 | decrease in growth and survival | maintained solubility | caused apoptotic death in multiple cancer cell lines | 0.5 | suppress expression |
| RQIKIWFQNRRMKWKKLVELSAENEKLHQRVEQLTRDLAGLRQFFK [CP-DN-CEBPD] | did not affect the morphology | dose-dependent decrease in the number | increased apoptotic cell death | neither CP-DN-CEBPB or CP-DN-CEBPD affected survival of astrocyte | 0.5 | decrease in growth and survival | 0.68±0.07 | decrease in growth and survival | maintained solubility | caused apoptotic death in multiple cancer cell lines | 0.5 | suppress expression |
